Assay results from publication PMC4293281 (Bioorganic & medicinal chemistry, 2014).
≈ marks a conversion by molar mass, not a printed value.

Key:
SV40 T Ag = SV40 T Ag (Simian virus 40, UniProt P03070); test: steady state ATPase assay with SV40 T Ag; type: biochemical; details: for inhibition of SV40 T Ag ATPase activity at 100 μM: final concentration 100 μM, percent activity relative to T Ag without inhibitor
SV40 = SV40 viral DNA replication assay in CV1 cells; type: cell-based, Simian Virus 40 in CV1 monkey kidney cells; details: monkey kidney cells, range of concentrations
[1] = aqueous solubility by LC-HRMS; type: physicochemical; details: distilled water, 30 °C, thermodynamic from solid
human Hsp70 = human Hsp70 (Homo sapiens, UniProt P0DMV8); test: steady state ATPase assay with human Hsp70; type: biochemical
Sequence of human Hsp70 (P0DMV8 whole entry): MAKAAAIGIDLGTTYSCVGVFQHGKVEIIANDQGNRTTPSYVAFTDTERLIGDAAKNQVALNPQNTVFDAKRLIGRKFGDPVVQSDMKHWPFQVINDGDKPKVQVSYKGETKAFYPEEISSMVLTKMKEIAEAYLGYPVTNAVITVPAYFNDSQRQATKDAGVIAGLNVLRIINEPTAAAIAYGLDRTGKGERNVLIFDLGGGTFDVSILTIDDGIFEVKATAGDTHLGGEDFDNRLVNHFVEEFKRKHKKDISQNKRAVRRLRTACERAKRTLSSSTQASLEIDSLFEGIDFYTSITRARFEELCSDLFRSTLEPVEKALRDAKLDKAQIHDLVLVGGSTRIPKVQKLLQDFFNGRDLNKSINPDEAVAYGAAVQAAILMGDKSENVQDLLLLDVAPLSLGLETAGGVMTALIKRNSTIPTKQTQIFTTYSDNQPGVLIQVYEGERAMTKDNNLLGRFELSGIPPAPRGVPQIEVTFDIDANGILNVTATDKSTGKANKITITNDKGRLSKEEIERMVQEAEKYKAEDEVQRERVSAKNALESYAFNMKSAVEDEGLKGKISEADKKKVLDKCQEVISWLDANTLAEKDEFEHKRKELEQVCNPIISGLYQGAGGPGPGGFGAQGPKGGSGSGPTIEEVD

[2] = molecular target: human Hsp70 in the presence of a J domain containing yeast protein (Hlj1) (Homo sapiens, UniProt P0DMV8); test: steady state ATPase assay, Hsp70 stimulated by J domain protein Hlj1; type: biochemical
Sequence of human Hsp70 in the presence of a J domain containing yeast protein (Hlj1) (P0DMV8 whole entry): as above

[3] = molecular target: human Hsp70 in the presence of a human J domain-containing protein (Hdj2) (Homo sapiens, UniProt P0DMV8); test: steady state ATPase assay, Hsp70 stimulated by J domain protein Hdj2; type: biochemical; details: 100 μM versus DMSO control, 60-min time course
Sequence of human Hsp70 in the presence of a human J domain-containing protein (Hdj2) (P0DMV8 whole entry): as above

[4] = compound stability in male mouse liver microsomes; type: in vitro ADME
HEK293 cells = test: HEK293 cell viability; type: cell-based, human; details: 20 h incubation, Cell Titer-Glo

Sequence of SV40 T Ag (P03070 whole entry): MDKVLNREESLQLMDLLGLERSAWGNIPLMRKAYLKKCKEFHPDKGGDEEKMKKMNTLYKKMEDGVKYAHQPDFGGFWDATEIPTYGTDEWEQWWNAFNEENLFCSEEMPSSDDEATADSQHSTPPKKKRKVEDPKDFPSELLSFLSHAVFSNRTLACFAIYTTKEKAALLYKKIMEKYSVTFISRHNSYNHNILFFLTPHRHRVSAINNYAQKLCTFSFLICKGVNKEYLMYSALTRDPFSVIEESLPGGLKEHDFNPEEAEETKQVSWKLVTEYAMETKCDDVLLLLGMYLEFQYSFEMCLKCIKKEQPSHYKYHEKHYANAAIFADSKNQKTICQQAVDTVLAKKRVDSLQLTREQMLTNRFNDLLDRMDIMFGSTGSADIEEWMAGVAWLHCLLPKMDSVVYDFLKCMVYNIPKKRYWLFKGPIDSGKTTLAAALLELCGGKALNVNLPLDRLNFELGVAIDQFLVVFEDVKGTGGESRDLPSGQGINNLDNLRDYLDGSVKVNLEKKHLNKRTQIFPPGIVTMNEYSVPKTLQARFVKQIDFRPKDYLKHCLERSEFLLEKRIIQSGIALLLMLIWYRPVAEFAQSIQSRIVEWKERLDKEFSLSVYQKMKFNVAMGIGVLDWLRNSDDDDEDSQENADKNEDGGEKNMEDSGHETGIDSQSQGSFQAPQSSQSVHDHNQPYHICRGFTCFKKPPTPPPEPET

SMILES | IC50 (SV40 T Ag) [µM] | inhibition of SV40 T Ag ATPase activity at 100 μM (SV40 T Ag) | inhibition of SV40 replication (viral DNA by qPCR) (SV40) | solubility at 24 h [1] [µg/mL] | other results
CC1=C(C(=O)OCc2ccccc2)C(c2ccc(-c3ccccc3C)cc2)NC(=O)N1CCCCCc1nnn[nH]1 (stereo not drawn) [LR340-006, Benzyl 1-(5-(1H-tetrazol-5-yl)pentyl)-6-methyl-4-(2′-methyl-[1,1′-biphenyl]-4-yl)-2-oxo-1,2,3,4-tetrahydropyrimidine-5-carboxylate] | ~50 |  |  |  | inhibition of SV40 T Ag ATPase activity, titration (SV40 T Ag; titration at 10, 30 and 100 μM): most potent
CC1=C(C(=O)OCc2ccccc2)C(c2ccc(-c3ccccc3)cc2)NC(=O)N1Cc1ccc(-c2nnn[nH]2)cc1 (stereo not drawn) [ML282-56, Benzyl 1-(4-(1H-tetrazol-5-yl)benzyl)-4-([1,1′-biphenyl]-4-yl)-6-methyl-2-oxo-1,2,3,4-tetrahydropyrimidine-5-carboxylate] | ~50 | inhibited T Ag ATPase activity | inhibited viral replication | 14.4 ± 0.5 (≈ 25.9 µM) | 
CC1=C(C(=O)OCc2ccccc2)C(c2ccc(-c3ccccc3)cc2)NC(=O)N1CCCCCC(=O)NS(C)(=O)=O (stereo not drawn) [ML282-66, Benzyl 4-([1,1′-biphenyl]-4-yl)-6-methyl-1-(6-(methylsulfonamido)-6-oxohexyl)-2-oxo-1,2,3,4-tetrahydropyrimidine-5-carboxylate] |  | inhibited T Ag ATPase activity |  |  | inhibition of SV40 T Ag ATPase activity at 30 μM (SV40 T Ag; titration, 30 μM): reduced compared to ML282-56
CC1=C(C(=O)OCc2ccccc2)C(c2ccc(-c3ccccc3C)cc2)NC(=O)N1Cc1ccc(-c2nnn[nH]2)cc1 (stereo not drawn) [SMAL, Benzyl 1-(4-(1H-tetrazol-5-yl)benzyl)-6-methyl-4-(2′-methyl-[1,1′-biphenyl]-4-yl)-2-oxo-1,2,3,4-tetrahydropyrimidine-5-carboxylate] | ~5 |  | inhibited viral replication | 62.4 ± 3.1 (≈ 109 µM) | IC50 (human Hsp70): ~24 µM; inhibition of endogenous Hsp70 ATPase activity at 30 μM (human Hsp70; final concentration 30 μM versus DMSO control): inhibited the endogenous activity of Hsp70; IC50 [2]: > 30 µM; inhibition of Hdj2 activation of Hsp70 ATPase [3]: stronger than MAL2-11B tetrazole; compound remaining after 60 min incubation ([4]; male mouse liver microsomes, NADPH, 1 h): ~ 68%; stability in liver microsomes ([4]; murine liver microsomes): quite stable
CN[C@@H]1C[C@H]2O[C@@](C)([C@@H]1OC)n1c3ccccc3c3c4c(c5c6ccccc6n2c5c31)C(=O)NC4 [Staurosporine] |  |  |  |  | LD50 (HEK293 cells): < 3 µM
